Assay results published in US5747448A, “Derivatives of cyclodepsipeptide PF 1022” (Meiji Seika Kaisha, Ltd., priority 1993, dated 1998).

Experiments:
fowl roundworms = assay: Fowl Roundworm Eliminating Test; format: in vivo; settings: infected fowls, worms counted to day 7
Experimental: Test 1 Fowl Roundworm Eliminating Test Fowls (three fowls per group), which had been artificially infected with fowl roundworms and whose infection therewith had been confirmed by scatoscopy, were used as experimental animals. Upon administration of each test substance, the test substance weighed in a dose (mg) accurately calculated on the basis of the body weight (kg) of each fowl was suspended in carboxymethylcellulose-containing water, and the resulting suspension was administered orally as a single dose unit using a stomach tube. After the administration, the worms eliminated from the fowls were counted daily. Seven days after the administration, the fowl was sacrificed and autopsied and the worms remaining in its intestinal tract were counted. The percent elimination was calculated in accordance with the following calculation equation: [formula] Each test substance is indicated by the corresponding substance code name shown above in Table 1.

[1] = system: Nippostrongylus brasillensis; assay: Anthelmintic effects on a rat intestinal nematode (N. brasillensis-infected rats); format: in vivo; settings: male Wistar rats; for Number of remaining worms (average value ± SD): 10 mg/kg p.o. 7 days after inoculation, autopsy 10 days after inoculation; for % Effectiveness: 10 mg/kg p.o., compared with infected control group
Experimental: Anthelmintic effects of certain PF1022 derivatives on a rat intestinal nematode were tested in accordance with the following method.
Sixteen male Wistar rats were divided into eight groups (two rats per group), and about 2,000 larval worms of Nippostrongylus brasillensis were hypodermically inoculated per rat. Seven days after the inoculation, PF1022, PF1022E, PF1022-002, PF1022-003, PF1022-209, PF1022-218 and PF1022-219 were, as test substances, forcedly administered p.o. to the rats in the groups, respectively, in an amount of 10 mg/kg per rat. Upon administration, each test substance (8 mg) was dissolved in 0.2 ml of dimethyl sulfoxide and then, the resultant solution was diluted with distilled water to give a 2 ml suspension. Ten days after the inoculation,the rats were each subjected to autopsy and imaginal worms parasitic on the small intestines were counted.
As the test results, the average of remaining worms in each of the eight groups and the percent effectiveness of the test substance in each group as compared with that of the infected control group are shown in Table 4.

Row | Compound | % Elimination (fowl roundworms; single oral dose 1.0 mg/kg) [%] | % Elimination (fowl roundworms; single oral dose 2.0 mg/kg) [%] | Number of remaining worms (average value ± SD) [1] | further results
1 | cyclo-(L-MeLeu-D-PhLac-L-MeLeu-D-Lac-L-MeLeu-D-TYRA(OBn)-L-MeLeu-D-Lac) [PF1022-022] | 40 | 93 |  | % Elimination (fowl roundworms; single oral dose 5 mg/kg): 84%
2 | cyclo-(L-MeLeu-D-PhLac-L-MeLeu-D-Lac-L-MeLeu-D-TYRA(O-All)-L-MeLeu-D-Lac) [PF1022-020] | 54 | 100 |  | 
3 | CC(C)CC1C(=O)OC(C)C(=O)N(C)C(CC(C)C)C(=O)OC(C)C(=O)N(C)C(CC(C)C)C(=O)OC(C)C(=O)N(C)C(CC(C)C)C(=O)OC(C)C(=O)N1C [PF1022-002, cyclo-(L-MeLeu-D-Lac-)4] |  |  | 1976.5 | % Effectiveness [1]: 2.7%
4 | cyclo-(L-MeLeu-D-VALA-L-MeLeu-D-Lac)2 [PF1022-209] |  |  | 827 ± 388.9 | % Effectiveness ([1]; 10 mg/kg): 59.3%; % Effectiveness ([1]; listed as PF 1022-209, 10 mg/kg): 59.8%
5 | CC(C)CC1C(=O)OC(CC2CCCCC2)C(=O)N(C)C(CC(C)C)C(=O)OC(C)C(=O)N(C)C(CC(C)C)C(=O)OC(Cc2ccccc2)C(=O)N(C)C(CC(C)C)C(=O)OC(C)C(=O)N1C (stereo not shown) [PF1022-AHH, hexahydro-PF1022] |  |  |  | % Elimination (fowl roundworms; single oral dose 5 mg/kg): 62%
6 | CCCCOc1ccc(C[C@H]2OC(=O)[C@H](CC(C)C)N(C)C(=O)[C@@H](C)OC(=O)[C@H](CC(C)C)N(C)C(=O)[C@@H](Cc3ccccc3)OC(=O)[C@H](CC(C)C)N(C)C(=O)[C@@H](C)OC(=O)[C@H](CC(C)C)N(C)C2=O)cc1 [PF1022-021, cyclo-(L-MeLeu-D-PhLac-L-MeLeu-D-Lac-L-MeLeu-D-TYRA(O-n-Bu)-L-MeLeu-D-Lac)] | 41 | 90 |  | 
7 | CC(C)C[C@H]1C(=O)O[C@H](Cc2ccc(O)cc2)C(=O)N(C)[C@@H](CC(C)C)C(=O)O[C@H](C)C(=O)N(C)[C@@H](CC(C)C)C(=O)O[C@H](Cc2ccccc2)C(=O)N(C)[C@@H](CC(C)C)C(=O)O[C@H](C)C(=O)N1C [PF1022 E, cyclo-(-L-Meleu-D-Lac-L-MeLeu-D-TYRA-L-MeLeu-D-Lac-L-MeLeu-D-PhLac)] |  |  | 2175 ± 134.4 | % Elimination (fowl roundworms; single oral dose 0.5 mg/kg): 70%; % Effectiveness [1]: 0%
8 | CC(C)CC1NC(=O)C(Cc2ccccc2)OC(=O)C(CC(C)C)N(C)C(=O)C(C)OC(=O)C(CC(C)C)NC(=O)C(Cc2ccccc2)OC(=O)C(CC(C)C)N(C)C(=O)C(C)OC1=O [PF1022-218, cyclo-(L-MeLeu-D-PhLac-L-Leu-D-Lac)2] |  |  | 2400 ± 362.0 | % Effectiveness [1]: 0%
9 | COc1ccc(C[C@H]2OC(=O)[C@H](CC(C)C)N(C)C(=O)[C@@H](C)OC(=O)[C@H](CC(C)C)N(C)C(=O)[C@@H](Cc3ccccc3)OC(=O)[C@H](CC(C)C)N(C)C(=O)[C@@H](C)OC(=O)[C@H](CC(C)C)N(C)C2=O)cc1 [PF1022-005, cyclo-(-L-MeLeu-D-Lac-L-MeLeu-D-PhLac-L-MeLeu-D-Lac-L-MeLeu-D-TYRA(OMe)] | 89 | 100 |  | % Elimination (fowl roundworms; single oral dose 0.5 mg/kg): 73%
10 | CC(C)CC1C(=O)OC(CC2CCCCC2)C(=O)N(C)C(CC(C)C)C(=O)OC(C)C(=O)N(C)C(CC(C)C)C(=O)OC(CC2CCCCC2)C(=O)N(C)C(CC(C)C)C(=O)OC(C)C(=O)N1C (stereo not shown) [PF1022-ADH, dodecahydro-PF1022] |  |  |  | % Elimination (fowl roundworms; single oral dose 5 mg/kg): 30%
11 | CCOc1ccc(C[C@H]2OC(=O)[C@H](CC(C)C)N(C)C(=O)[C@@H](C)OC(=O)[C@H](CC(C)C)N(C)C(=O)[C@@H](Cc3ccccc3)OC(=O)[C@H](CC(C)C)N(C)C(=O)[C@@H](C)OC(=O)[C@H](CC(C)C)N(C)C2=O)cc1 [PF1022-016, cyclo-(L-MeLeu-D-PhLac-L-MeLeu-D-Lac-L-MeLeu-D-TYRA(OEt)-L-MeLeu-D-Lac)] | 61 | 100 |  | % Elimination (fowl roundworms; single oral dose 0.5 mg/kg): 55%
